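How tested: cells in 96-well plates exposed to compound for 48 hours at five concentrations. Here, GI50 denotes the concentration required for 50% inhibition of growth. TGI denotes the concentration required for complete inhibition of growth.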
Tests used:
Experiment in all cases: NCI anticancer screen, dose series, 48 h
[1] = test system: UO-31 renal
[2] = test system: SK-OV-3 ovarian
[3] = test system: A498 renal
[4] = test system: IGROV1 ovarian
[5] = test system: LOX IMVI melanoma
[6] = test system: MDA-MB-231 breast
[7] = test system: HCT-116 colon
[8] = test system: OVCAR-8 ovarian
[9] = test system: A549 NSCLC
[10] = test system: MOLT-4 leukemia

Compound: O=[N+]([O-])C(C=C(n1nnc2ccccc21)n1nnc2ccccc21)=C(n1nnc2ccccc21)n1nnc2ccccc21
- TGI [1]: > 100 µM
- TGI [2]: > 100 µM
- TGI [3]: > 100 µM
- TGI [4]: > 100 µM
- TGI [5]: > 100 µM
- TGI [6]: > 100 µM
- TGI [7]: > 100 µM
- TGI [8]: > 100 µM
- TGI [9]: > 100 µM
- TGI [10]: 93.4 µM

Compound: CC(=O)c1sc2[n+](c1C)C(=O)/C(=C\c1ccccc1Cl)S2
- TGI [1]: 34 µM
- TGI [2]: 47.7 µM
- TGI [3]: 74.3 µM
- TGI [4]: 33.8 µM
- TGI [5]: 35.8 µM
- TGI [6]: 52.9 µM
- TGI [7]: 37.6 µM
- TGI [8]: 77.5 µM
- TGI [9]: 43.6 µM
- TGI [10]: > 100 µM

Compound: C=C1C(=O)OC2C3OC(C)(CCC(O)C3COC(C)=O)CC(OC(=O)/C(=C/C)COC(C)=O)C12 (stereo not given)
- TGI [1]: 0.807 µM
- TGI [2]: 19.6 µM
- TGI [3]: 3.05 µM
- TGI [4]: 2.85 µM
- TGI [5]: 0.342 µM
- TGI [6]: 1.16 µM
- TGI [7]: 0.216 µM
- TGI [8]: 20 µM
- TGI [9]: 22.1 µM
- TGI [10]: 0.389 µM

Compound: COc1ccc(-c2n/c(=C\c3c(O)[nH]c4ccccc34)cc3c2=Nc2ccccc2-3)cc1
- GI50 [1]: 0.693 µM
- TGI [1]: 24.2 µM
- GI50 [2]: 9.19 µM
- TGI [2]: 35.6 µM
- GI50 [3]: 2.42 µM
- TGI [3]: 13.2 µM
- GI50 [4]: 15.3 µM
- TGI [4]: 47.7 µM
- GI50 [5]: 1.55 µM
- TGI [5]: 2.88 µM
- GI50 [6]: 1.13 µM
- TGI [6]: 2.52 µM
- GI50 [7]: 1.55 µM
- TGI [7]: 2.88 µM
- GI50 [8]: 1.42 µM
- TGI [8]: 3.11 µM
- GI50 [9]: 1.79 µM
- TGI [9]: 4.31 µM
- GI50 [10]: 2.03 µM
- TGI [10]: 4.27 µM

Compound: CCNC(=S)N/N=C(\C)c1cccc(C)n1
- TGI [1]: > 100 µM
- TGI [2]: > 100 µM
- TGI [3]: 45.3 µM
- TGI [4]: > 100 µM
- TGI [5]: > 100 µM
- TGI [6]: > 100 µM
- TGI [7]: 53.1 µM
- TGI [8]: > 100 µM
- TGI [9]: > 100 µM
- TGI [10]: > 100 µM

Compound: NN/C(=N\S(=O)(=O)c1ccc(S(=O)(=O)c2ccccc2)s1)Nc1ccc(Cl)cc1
- TGI [1]: > 100 µM
- TGI [2]: > 100 µM
- TGI [3]: > 100 µM
- TGI [4]: 88.7 µM
- TGI [5]: 36.6 µM
- TGI [6]: > 100 µM
- TGI [7]: 32.5 µM
- TGI [8]: > 100 µM
- TGI [9]: > 100 µM
- TGI [10]: 41.2 µM

Compound: c1cc2c(cc1C1=NCCN1)c1cc(C3=NCCN3)ccc1n2CC1CCCCC1
- TGI [1]: > 100 µM
- TGI [2]: 81.8 µM
- TGI [3]: > 100 µM
- TGI [4]: 69.7 µM
- TGI [5]: 39.7 µM
- TGI [6]: > 100 µM
- TGI [7]: 51.1 µM
- TGI [8]: > 100 µM
- TGI [9]: > 100 µM
- TGI [10]: 34.8 µM

Compound: O=C(Nc1ccc2ccccc2c1)c1cc2cc(CCl)ccc2oc1=O
- TGI [1]: > 100 µM
- TGI [2]: > 100 µM
- TGI [3]: > 100 µM
- TGI [4]: > 100 µM
- TGI [5]: > 100 µM
- TGI [6]: > 100 µM
- TGI [7]: > 100 µM
- TGI [8]: > 100 µM
- TGI [9]: > 100 µM
- TGI [10]: > 100 µM

Compound: CC(C)NC(=O)OCc1c(COC(=O)NC(C)C)c(-c2cc[n+](COC(=O)C3CCCCC3)cc2)n2c1CCC2
- TGI [1]: > 100 µM
- TGI [2]: > 100 µM
- TGI [3]: > 100 µM
- TGI [4]: > 100 µM
- TGI [5]: > 100 µM
- TGI [6]: > 100 µM
- TGI [7]: > 100 µM
- TGI [8]: > 100 µM
- TGI [9]: > 100 µM
- TGI [10]: > 100 µM

Compound: COC(=O)c1cc(/C=C\c2cc(OC)ccc2OC)ccc1OC
- TGI [1]: 75.3 µM
- TGI [2]: 83.6 µM
- TGI [3]: > 100 µM
- TGI [4]: 42.2 µM
- TGI [5]: 56.9 µM
- TGI [6]: > 100 µM
- TGI [7]: > 100 µM
- TGI [8]: > 100 µM
- TGI [9]: > 100 µM
- TGI [10]: 41.7 µM

Compound: CC(C)C(NC(=O)C(Cc1ccccc1)NC(=O)[C@H]1CCC[C@H]1NC(=O)C(Cc1ccc(OC(C)(C)C)cc1)NC(=O)OC(C)(C)C)C(N)=O (stereo not given in full)
- TGI [1]: > 100 µM
- TGI [2]: 57.6 µM
- TGI [3]: 27.6 µM
- TGI [4]: > 100 µM
- TGI [5]: 30.3 µM
- TGI [6]: 49.5 µM
- TGI [7]: 32.1 µM
- TGI [8]: 34.9 µM
- TGI [9]: 45.5 µM
- TGI [10]: 46.5 µM

Compound: Cc1ccc2c(c1C)C(=O)/C(=C/c1cccc(C)c1C(=O)O)C2
- TGI [1]: > 43 µM
- TGI [2]: > 100 µM
- TGI [3]: 99.2 µM
- TGI [4]: > 100 µM
- TGI [5]: > 90.7 µM
- TGI [6]: > 100 µM
- TGI [7]: > 100 µM
- TGI [8]: > 100 µM
- TGI [9]: > 100 µM
- TGI [10]: > 100 µM

Compound: CC1C2(C)OCC(C#N)(C(=N)O2)C1(C#N)C#N (stereo not given)
- TGI [1]: > 100 µM
- TGI [2]: > 100 µM
- TGI [3]: > 100 µM
- TGI [4]: > 100 µM
- TGI [5]: 40.4 µM
- TGI [6]: 42.8 µM
- TGI [7]: 42.1 µM
- TGI [8]: 84.2 µM
- TGI [9]: > 100 µM
- TGI [10]: > 100 µM

Compound: O=C(Nc1ccc(Cl)cc1)c1cc(S(=O)(=O)Nc2n[nH]c(=O)n2-c2ccccc2)c(S)cc1Cl
- TGI [1]: > 100 µM
- TGI [2]: > 100 µM
- TGI [3]: > 100 µM
- TGI [4]: > 100 µM
- TGI [5]: > 100 µM
- TGI [6]: > 100 µM
- TGI [7]: > 100 µM
- TGI [8]: > 100 µM
- TGI [9]: > 100 µM
- TGI [10]: > 100 µM

Compound: CCOC(=O)/C=C/[C@@H](CC)O[Si](C(C)C)(C(C)C)C(C)C
- TGI [1]: > 100 µM
- TGI [2]: > 100 µM
- TGI [3]: > 100 µM
- TGI [4]: > 100 µM
- TGI [5]: > 100 µM
- TGI [6]: > 100 µM
- TGI [7]: > 100 µM
- TGI [8]: > 100 µM
- TGI [9]: > 100 µM
- TGI [10]: > 100 µM

Compound: COC(=O)C(NC(=O)OC(C)(C)C)P(=O)(OC)OC (stereo not given)
- TGI [1]: > 100 µM
- TGI [2]: > 100 µM
- TGI [3]: > 100 µM
- TGI [4]: > 100 µM
- TGI [5]: > 100 µM
- TGI [6]: > 100 µM
- TGI [7]: > 100 µM
- TGI [8]: > 100 µM
- TGI [9]: > 100 µM
- TGI [10]: > 100 µM

Compound: CC(C)=NOC(=O)Nc1cccc2c1OCO2
- TGI [1]: > 100 µM
- TGI [2]: > 100 µM
- TGI [3]: > 100 µM
- TGI [4]: > 100 µM
- TGI [5]: > 100 µM
- TGI [6]: > 100 µM
- TGI [7]: > 100 µM
- TGI [8]: > 100 µM
- TGI [9]: > 100 µM
- TGI [10]: > 100 µM

Compound: COC(=O)c1ccc(NCC2=C(Br)C(=O)C=CC2=O)cc1Cl
- TGI [1]: 34.7 µM
- TGI [2]: > 100 µM
- TGI [3]: > 100 µM
- TGI [4]: 30.5 µM
- TGI [5]: 28.1 µM
- TGI [6]: 34.8 µM
- TGI [7]: 31.9 µM
- TGI [8]: 47.1 µM
- TGI [9]: > 100 µM
- TGI [10]: > 100 µM

Compound: CCCCCCCCCCCCOP(=O)(O)OP(=O)(O)OCC1OC(n2cc(C)c(=O)[nH]c2=O)CC1O (stereo not given)
- TGI [1]: > 100 µM
- TGI [2]: > 100 µM
- TGI [3]: > 100 µM
- TGI [4]: > 100 µM
- TGI [5]: > 100 µM
- TGI [6]: > 100 µM
- TGI [7]: > 100 µM
- TGI [8]: > 100 µM
- TGI [9]: > 100 µM
- TGI [10]: > 100 µM

Compound: O=C(NCCCCCN1CCC2(CCCCC2)CC1)C(C1CCCCC1)C1CCCCC1
- TGI [1]: 8.46 µM
- TGI [2]: 15.1 µM
- TGI [3]: 9.42 µM
- TGI [4]: 8.78 µM
- TGI [5]: 7.02 µM
- TGI [6]: 10.8 µM
- TGI [7]: 8.85 µM
- TGI [8]: 7.23 µM
- TGI [9]: 16.7 µM
- TGI [10]: 4.87 µM
